# Experimental data from patent publication US8318681B2, “Utilization of peptides as active ingredients for slimming” (ISP Investments Inc., priority 2006, dated 2012).
# Ends that are not written are not given here.
# Test system: pre-adipocyte cell line 3T3-L1
# Assay: Activity of the peptides on adipocytes: 3T3-L1 pre-adipocytes differentiated into mature adipocytes, Oil Red staining of lipid vacuoles, microscope observation
# Assay type: cell-based
# Conditions: mature adipocytes from 3T3-L1, treated with solution containing the peptide
# Protocol: The number and the size of the lipid vacuoles present in the mature adipocytes are evaluated by microscope observation after specific staining with the “Oil Red” stain.
# The pre-adipocyte cells 3T3-L1 are seeded in Labteks and maintained until 100% confluence in DMEM 10% SVF culture medium. The cells are treated with the peptide of sequence ID N° (5), representative of the family of peptides per the invention, placed in 1% solution à 1% starting with a solution of 50 ppm. Nontreated controls were prepared in parallel.
# Once confluence is achieved, the cells are cultivated in the presence of differentiation inducers (IBMX, dexamethasone and insulin), so as to bring about the final differentiation into mature adipocytes. The differentiated adipocytes are further incubated for 3 hours with the peptide being tested in a concentration of 1%. Nontreated controls were prepared in parallel.
# The adipocytes are then fixed for 10 minutes in a 4% formol and NaCl solution, after which the “Oil Red” stain solution (Sigma, O-0625) is applied for 15 minutes. The cells are then rinsed with warm water and mounted on slides, in hydrophilic medium (Aquatex). The observation is done under an optical microscope.
substance,measurement,setting,value
GLYDNLE [sequence ID N^o (5)],morphology of mature adipocytes,versus nontreated controls (voluminous spherical shape),less rounded
same,content of intra-adipocyte lipid vesicles,"versus nontreated controls, Oil Red stain",clearly diminished
